From PubChem BioAssay AID330 (DTP/NCI, 2004)
Values joined by “and” are separate entries in the source; they are usually repeats but may differ in a detail not shown here. Identical values can stand only once. Toxic doses and inconclusive results are not listed.

System: P388 leukemia ip, CD2F1 mice, survival T/C
Test: NCI In Vivo Anticancer Drug Screen. Data for tumor model P388 Leukemia (intraperitoneal) in CD2F1 (CDF1) mice
Details: endpoint: median survival time, higher = longer survival
Method in brief: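 Mice carrying the transplanted tumor received test compound or vehicle. Survival was recorded in each group, and the value is the treated-group measurement divided by that of the vehicle-treated control group.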

[1] = dose: 12.5 mg/kg/injection, schedule: Q01DX009 (ip), vehicle: saline
[2] = dose: 25.0 mg/kg/injection, schedule: Q01DX009 (ip), vehicle: saline
[3] = dose: 50.0 mg/kg/injection, schedule: Q01DX009 (ip), vehicle: saline
[4] = dose: 100.0 mg/kg/injection, schedule: Q01DX009 (ip), vehicle: saline
[5] = dose: 100.0 mg/kg/injection, schedule: Q01DX001 (ip), vehicle: Klucel (hydroxypropylcellulose) (HPC)
[6] = dose: 200.0 mg/kg/injection, schedule: Q01DX001 (ip), vehicle: Klucel (hydroxypropylcellulose) (HPC)
[7] = dose: 400.0 mg/kg/injection, schedule: Q01DX001 (ip), vehicle: Klucel (hydroxypropylcellulose) (HPC)
[8] = dose: 50.0 mg/kg/injection, schedule: Q01DX009 (ip), vehicle: Klucel (hydroxypropylcellulose) (HPC)
[9] = dose: 100.0 mg/kg/injection, schedule: Q01DX009 (ip), vehicle: Klucel (hydroxypropylcellulose) (HPC)
[10] = dose: 200.0 mg/kg/injection, schedule: Q01DX009 (ip), vehicle: Klucel (hydroxypropylcellulose) (HPC)
[11] = dose: 50.0 mg/kg/injection, schedule: Q01DX009 (ip), vehicle: saline with Tween-80
[12] = dose: 100.0 mg/kg/injection, schedule: Q01DX009 (ip), vehicle: saline with Tween-80
[13] = dose: 200.0 mg/kg/injection, schedule: Q01DX009 (ip), vehicle: saline with Tween-80
[14] = dose: 100.0 mg/kg/injection, schedule: Q04DX003 (ip), vehicle: saline with Tween-80
[15] = dose: 200.0 mg/kg/injection, schedule: Q04DX003 (ip), vehicle: saline with Tween-80
[16] = dose: 400.0 mg/kg/injection, schedule: Q04DX003 (ip), vehicle: saline with Tween-80
[17] = dose: 100.0 mg/kg/injection, schedule: Q01DX001 (ip), vehicle: saline with Tween-80
[18] = dose: 200.0 mg/kg/injection, schedule: Q01DX001 (ip), vehicle: saline with Tween-80
[19] = dose: 400.0 mg/kg/injection, schedule: Q01DX001 (ip), vehicle: saline with Tween-80
[20] = dose: 60.0 mg/kg/injection, schedule: Q01DX005 (ip), vehicle: saline with Tween-80
[21] = dose: 25.0 mg/kg/injection, schedule: Q01DX009 (ip), vehicle: saline with Tween-80
[22] = dose: 50.0 mg/kg/injection, schedule: Q01DX005 (ip), vehicle: saline with Tween-80
[23] = dose: 100.0 mg/kg/injection, schedule: Q01DX005 (ip), vehicle: saline with Tween-80
[24] = dose: 200.0 mg/kg/injection, schedule: Q01DX005 (ip), vehicle: saline with Tween-80

COCC1OC(OC2OCC3OC4(OCC(O)(C(C)OC)C5OCOC54)OC3C2OC)C(OC)C(O)C1OC1OC(C)C(OC)C(OC2OC(C)C3OC4(CC(O)C(OC5CC(OC6CC(C)([N+](=O)[O-])C(OC)C(C)O6)C(OC(=O)c6c(C)c(Cl)c(O)c(Cl)c6OC)C(C)O5)C(C)O4)OC3(C)C2O)C1O (centres undefined)
T/C [1]: 118 % of control | T/C [2]: 103 % of control | T/C [3]: 98 % of control | T/C [4]: 105 % of control

CCCCCCCCCC1c2[nH]c3ccccc3c2C(=O)NN1C(C)=O (centres undefined)
T/C [5]: 98 % of control | T/C [6]: 98 % of control | T/C [7]: 104 % of control

O=C1NC(=O)N2CCCOC2C1c1ccccc1 (centres undefined)
T/C [8]: 103 % of control | T/C [9]: 99 % of control | T/C [10]: 99 % of control

CCOC(=O)[C](=[N+]=[N-])[Hg][C](=[N+]=[N-])C(=O)OCC
T/C (dose: 1.56 mg/kg/injection, schedule: Q04DX003 (ip), vehicle: saline): 100 % of control | T/C (dose: 3.12 mg/kg/injection, schedule: Q04DX003 (ip), vehicle: saline): 101 % of control | T/C (dose: 6.25 mg/kg/injection, schedule: Q04DX003 (ip), vehicle: saline): 100 % of control

COC1/C=C/OC2(C)Oc3c(C)c(O)c4c(O)c(c(C5SCCS5)c(O)c4c3C2=O)NC(=O)/C(C)=C\C=C\C(C)C(O)C(C)C(O)C(C)C(O)C1C (centres undefined)
T/C [11]: 97 % of control | T/C [12]: 102 % of control | T/C [13]: 96 % of control

Cc1ccc(N=C(N)NC#N)cc1
T/C [11]: 100 % of control | T/C [12]: 90 % of control | T/C [14]: 91 % of control | T/C [13]: 90 % of control | T/C [15]: 87 % of control

Nc1cc(=O)[nH][nH]1
T/C [14]: 100 % of control | T/C [15]: 100 % of control | T/C [16]: 109 % of control

Cc1cc(=O)oc2cc3c(cc12)CCCN3
T/C (dose: 60.0 mg/kg/injection, schedule: Q01DX005 (ip), vehicle: Klucel (hydroxypropylcellulose) (HPC)): 101 % of control | T/C (dose: 120.0 mg/kg/injection, schedule: Q01DX005 (ip), vehicle: Klucel (hydroxypropylcellulose) (HPC)): 104 % of control | T/C (dose: 240.0 mg/kg/injection, schedule: Q01DX005 (ip), vehicle: Klucel (hydroxypropylcellulose) (HPC)): 96 % of control

CCOC(=O)C(C(=O)C(F)(F)C(F)(F)C(F)(F)C(=O)C(C(=O)OCC)=P(c1ccccc1)(c1ccccc1)c1ccccc1)=P(c1ccccc1)(c1ccccc1)c1ccccc1
T/C [17]: 108 % of control | T/C [18]: 99 % of control | T/C [19]: 108 % of control

CC1CCCC/C1=N\N(C)C (centres undefined)
T/C [20]: 100 % of control | T/C (dose: 120.0 mg/kg/injection, schedule: Q01DX005 (ip), vehicle: saline with Tween-80): 94 % of control

CCCCOC(=O)c1[nH]cnc1/N=N\N(C)C
T/C [21]: 120 % of control | T/C [12]: 105 % of control | T/C [14]: 108 % of control | T/C (dose: 132.0 mg/kg/injection, schedule: Q04DX003 (ip), vehicle: saline with Tween-80): 100 % of control | T/C (dose: 300.0 mg/kg/injection, schedule: Q04DX003 (ip), vehicle: saline with Tween-80): 90 % of control | T/C [16]: 100 % of control

O=C1CSC(=S)N1c1ccc(C(F)(F)F)cc1
T/C (dose: 25.0 mg/kg/injection, schedule: Q01DX001 (ip), vehicle: Klucel (hydroxypropylcellulose) (HPC)): 93 % of control | T/C (dose: 50.0 mg/kg/injection, schedule: Q01DX001 (ip), vehicle: Klucel (hydroxypropylcellulose) (HPC)): 99 % of control | T/C [5]: 110 % of control

CCSc1ccc2c3c(cccc13)C(=O)N(CCc1ccccn1)C2=O
T/C [8]: 98 % of control | T/C [9]: 99 % of control | T/C [10]: 92 % of control

[CH3][Sn]([CH3])([Cl])[c]1cc[c]([Sn]([CH3])([CH3])[Cl])cc1
T/C (dose: 0.19 mg/kg/injection, schedule: Q01DX005 (ip), vehicle: suspension in saline): 122 % of control | T/C (dose: 0.39 mg/kg/injection, schedule: Q01DX005 (ip), vehicle: suspension in saline): 115 % of control | T/C (dose: 0.79 mg/kg/injection, schedule: Q01DX005 (ip), vehicle: saline): 160 % of control | T/C (dose: 3.12 mg/kg/injection, schedule: Q01DX005 (ip), vehicle: suspension in saline): 154 % of control

CC1SC(C)SC(C(C)(C)O)S1 (centres undefined)
T/C [22]: 100 % of control | T/C [23]: 100 % of control | T/C [24]: 100 % of control

CNC1=C(C(=O)c2ccccc2)CCC1
T/C (dose: 6.25 mg/kg/injection, schedule: Q01DX009 (ip), vehicle: saline): 104 % of control | T/C [1]: 104 % of control | T/C [2]: 101 % of control | T/C [3]: 101 % of control | T/C [4]: 104 % of control and 87 % of control and 95 % of control | T/C (dose: 200.0 mg/kg/injection, schedule: Q01DX009 (ip), vehicle: saline): 124 % of control and 90 % of control and 95 % of control

CC1(C)CC(N)=CC(=S)N1
T/C (dose: 12.5 mg/kg/injection, schedule: Q01DX009 (ip), vehicle: saline with Tween-80): 92 % of control | T/C [21]: 97 % of control | T/C [11]: 101 % of control

C/C(=N\NC(=S)N1CCN(c2ccccn2)CC1)c1nccs1
T/C (dose: 6.25 mg/kg/injection, schedule: Q01DX005 (ip), vehicle: saline with Tween-80): 105 % of control | T/C (dose: 12.5 mg/kg/injection, schedule: Q01DX005 (ip), vehicle: saline with Tween-80): 113 % of control

CC(NNC(=S)N1CCN(c2ccccn2)CC1)c1cc2ccccc2cn1 (centres undefined)
T/C (dose: 12.5 mg/kg/injection, schedule: Q04DX003 (ip), vehicle: Klucel (hydroxypropylcellulose) (HPC)): 96 % of control | T/C (dose: 25.0 mg/kg/injection, schedule: Q04DX003 (ip), vehicle: Klucel (hydroxypropylcellulose) (HPC)): 88 % of control | T/C (dose: 50.0 mg/kg/injection, schedule: Q04DX003 (ip), vehicle: Klucel (hydroxypropylcellulose) (HPC)): 88 % of control | T/C (dose: 400.0 mg/kg/injection, schedule: Q04DX003 (ip), vehicle: Klucel (hydroxypropylcellulose) (HPC)): 86 % of control

C/C=C/N=NNc1ccccc1OC
T/C (dose: 100.0 mg/kg/injection, schedule: Q04DX003 (ip), vehicle: saline + Tween-80 + alcohol): 107 % of control

CCOC(=O)Nc1cc(Cl)ccc1O
T/C [14]: 90 % of control | T/C [15]: 90 % of control | T/C [16]: 90 % of control

Nc1nc(Cl)c(N=Nc2ccccc2)c(=O)[nH]1
T/C (dose: 7.5 mg/kg/injection, schedule: Q01DX005 (ip), vehicle: saline with Tween-80): 111 % of control | T/C (dose: 15.0 mg/kg/injection, schedule: Q01DX005 (ip), vehicle: saline with Tween-80): 105 % of control | T/C (dose: 30.0 mg/kg/injection, schedule: Q01DX005 (ip), vehicle: saline with Tween-80): 99 % of control and 108 % of control | T/C [20]: 101 % of control and 109 % of control

O=C(O)C(Cc1ccccc1N(CCO)CCO)N1C(=O)c2ccccc2C1=O (centres undefined)
T/C [21]: 99 % of control | T/C [11]: 93 % of control | T/C [12]: 93 % of control | T/C [13]: 96 % of control

O=c1c(/C=C\Nc2ccccc2)c(-c2ccccc2)c1=O
T/C [17]: 100 % of control | T/C [18]: 92 % of control | T/C [19]: 92 % of control

CCN=NNc1ccc(C#N)cc1
T/C (dose: 6.25 mg/kg/injection, schedule: Q01DX009 (ip), vehicle: distilled water + Tween-80): 104 % of control | T/C (dose: 12.5 mg/kg/injection, schedule: Q01DX009 (ip), vehicle: distilled water + Tween-80): 109 % of control and 91 % of control | T/C (dose: 25.0 mg/kg/injection, schedule: Q01DX009 (ip), vehicle: distilled water + Tween-80): 119 % of control and 97 % of control | T/C (dose: 50.0 mg/kg/injection, schedule: Q01DX009 (ip), vehicle: distilled water + Tween-80): 100 % of control and 123 % of control | T/C (dose: 100.0 mg/kg/injection, schedule: Q01DX009 (ip), vehicle: distilled water + Tween-80): 106 % of control

O=Cc1c(-c2ccc(Cl)cc2)nc2sccn12
T/C [5]: 93 % of control | T/C [6]: 96 % of control | T/C [7]: 93 % of control

Cc1cn2c(n1)sc1ccccc12
T/C [22]: 96 % of control | T/C [23]: 95 % of control | T/C [24]: 95 % of control

Oc1ccc2ccccc2c1N=Nc1nn[nH]n1
T/C [22]: 99 % of control | T/C [23]: 106 % of control
